Tests used:
[1] = tested on: C57BL/6j mice; experiment: Ovalbumin-specific IgM in serum, oral tolerance model; format: in vivo
Experimental: Since it is well-known that animals can be immunized by ovalbumin (OVA) to establish the animal model for the autoimmune disease (The Journal of Pharmacology and Experimental Therapeutics 288:849-857, 1999), the present invention establishes an animal model which includes mice with OVA-induced autoimmune disease, and the mice are treated with DeCaPS to enhance oral tolerance. […] 50 μg of OVA with Complete Freund's Adjuvant (CFA) was administrated to the mice as an antigen via i.p. injection at day 8 and with OVA on day 24. OVA-specific IgG and IgM in the blood was collected at day 22 and day 30. The mice were sacrificed at day 32 to collect an intestinal lavage solution of the intestinal mucosa and the lung mucosa to detect IgA in response to OVA. The detailed experimental procedures are illustrated in the following table II.
With comparison to the IgM antibody level expressed in the control group at day 22, the IgM antibody level expressed in the normal group was decreased by about 49% (p<0.05), the IgM antibody level-expressed in the positive control group was suppressed by about 87% (p<0.05), the IgM antibody level-expressed in the DC-1 group was suppressed by about 46% (p<0.02), the IgM antibody level-expressed in the DC-2 group was suppressed by about 88% (p<0.001), and the IgM antibody level in the DC-3 group was suppressed by about 86% (p<0.001). […]

[2] = tested on: C57BL/6j mice; experiment: Ovalbumin-specific IgG in serum, oral tolerance model; format: in vivo
Experimental: Since it is well-known that animals can be immunized by ovalbumin (OVA) to establish the animal model for the autoimmune disease (The Journal of Pharmacology and Experimental Therapeutics 288:849-857, 1999), the present invention establishes an animal model which includes mice with OVA-induced autoimmune disease, and the mice are treated with DeCaPS to enhance oral tolerance. C57/BL6j mice ([…]) were orally treated with 0.5 mg/ml ovalbumin (OVA) in drinking water at day 4 and day 5, and DeCaPS was administrated to the C57/BL6j mice as an adjuvant at dosages of 10 mg/kg/day, 40 mg/kg/day and 160 mg/kg/day at days 3-7. 50 μg of OVA with Complete Freund's Adjuvant (CFA) was administrated to the mice as an antigen via i.p. injection at day 8 and with OVA on day 24. OVA-specific IgG and IgM in the blood was collected at day 22 and day 30. The mice were sacrificed at day 32 to collect an intestinal lavage solution of the intestinal mucosa and the lung mucosa to detect IgA in response to OVA. The detailed experimental procedures are illustrated in the following table II. […]

[3] = day 22, positive control group (oral OVA days 1-5, no DeCaPS)
[4] = day 30, positive control group (oral OVA days 1-5, no DeCaPS)

ovalbumin [ovalbumin antigen]
IgM antibody level suppressed vs control group [1, 3]: about 87% | IgM antibody level suppressed vs control group [1, 4]: about 72% | IgG antibody level suppressed vs control group [2, 3]: about 94% | IgG antibody level suppressed vs control group [2, 4]: about 75%
